Measurements from patent publication US12648924B2, “Prevention and treatment of effects of aging and age-associated disorders with ketone supplementation” (priority 2020, dated 2026).
“Also recorded” adds a separate entry of the source.

Legend:
[1] = Tolerability of KDE incorporated in food, bodyweight and food intake (pilot work, Experiment 4b); format: in vivo, VM/Dk mice
From the text: (§1) Food Intake and Ketone Diester Administration: Standard diet dry food (2018 Teklad Global 18% Protein Rodent Diet, Harlan) was mixed with deionized water (1 g dry food/mL deionized water) into a consistent paste and placed on a 100×15 mm dish. Food intake was tracked daily at the same time (7:00-9:00) and replaced every other day to ensure fresh food. Due to sinusoidal/oscillatory changes in food intake observed every other day (2-day pattern), a 4-day (2×2-day pattern) average was taken at EOL and baseline to calculate changes in anorexic symptoms. KDE was chemically synthesized with physical properties, preparation, and analysis described previously. For evaluation of KDE effect on anorexia, food intake was tracked daily at the same time (7:00-9:00). […] Consequently, upon VM-M3 inoculation, KDE+VM-M3 received ad libitum 0% KDE/weight day 1, 5% KDE day 2, 10% KDE day 3, 15% KDE day 4, 20% KDE day 5, 25% KDE day 6, and 30% KDE day 7 through 21 on top of HPSD. VM-M3 and Sham received HPSD ad libitum. As pilot work indicated potential water evaporation in food paste in ventilated cages, dehydration standard curve was calculated across various volumes of plated food (5, 10, 25.0, 50.0, 100 g/food) with and without KDE over a two-day period. Standard curve equation [water evaporated=0.2472 (original grams of water)+1.364] was used to correct for amount of dehydration prior to calculating caloric intake. For LPS experiments, 1×4 mL/kg KDE gavage or 1×4 mL/kg water gavage were administered for KDE+LPS and LPS-only, respectively. […]
(§2) To determine whether KDE could alter systemic metabolism, blood metabolites were measured at baseline following a standard diet and after a 4-day transition to a standard diet supplemented with 20% KDE, 25% KDE, or 30% KDE. […] To determine whether KDE could alter metabolism in CACS, blood ketones, glucose, and lactate were measured weekly. […] Thus, to determine if KDE altered tumor burden, in vivo bioluminescence imaging was analyzed weekly.

[2] = Blood metabolites after 4-day transition to standard diet supplemented with KDE (Experiment 4a); format: in vivo, VM/Dk mice; details: for blood ketone levels: vs baseline
From the text: as §1, with “respectively. Ab libitum food intake was tracked daily during initial analysis with caloric restriction reported as the percent reduction in 24-hour caloric intake from pre- to post-LPS administration. Pair-feeding was conducted during subsequent analysis.” for “respectively.”
Metabolic Biomarkers: Blood glucose and R β-hydroxybutyrate were measured using Precision Xtra™ Blood Glucose & Ketone Monitoring System (Abbott Laboratories, Abbott Park, IL). Blood lactate concentration was measured using Lactate Plus Lactate Meter (Nova Biomedical). IGF-1 and Insulin were relabeled for blinded analysis and subsequently analyzed using Luminex 100 system (Luminex, Austin, TX) with R&D Systems Mouse 1-Plex Luminex Assay (R&D Systems, Minneapolis, MN) and Milliplex Mouse Multiplex Kit (Millipore, St. Charles, MO), respectively, using manufacturer's protocol.
as §2

CC(=O)CC(=O)OCCC(C)OC(=O)CC(C)=O (stereo not shown) [KDE, R/S 1,3-butanediol acetoacetate diester]
ad libitum food intake ([1]; 20-30% by weight KDE incorporated in standard diet, pilot work): reductions in ad libitum food intake | tolerability as indicated by bodyweight maintenance ([1]; 30% KDE reached incrementally (5%/day) over 7 days): well-tolerated | bodyweight across time ([1]; incremental incorporation 0-30% KDE/weight at 5% KDE/weight/day, highly palatable standard diet): did not result in changes in bodyweight across time | blood ketone levels ([2]; 20% KDE in standard diet, 4-day transition): significant elevations | blood ketone levels ([2]; 30% KDE in standard diet, 4-day transition): significant elevations; also recorded: highest ketone elevations | blood glucose levels ([2]; 30% KDE in standard diet, compared with 20% and 25% KDE): greatest reduction in glucose | blood glucose levels ([2]; all KDE groups (20%, 25%, 30% KDE in standard diet), 4-day transition): significant reductions
